System: multiple myeloma tumor cell line RPMI 8226
Test: Promega Cell Titer-Glo antiproliferative assay, single agent and combination
Format: cell-based, human
Conditions: unit from figure X axis
Method: The antiproliferative activity of tris(8-quinolinolato)gallium(III) and lenalidomide against the human multiple myeloma tumor cell line RPMI 8226 was determined with Promega's Cell Titer-Glo® assay. The human tumor cells were placed in a 96-well microculture plate at the appropriate density for 96 hours of total growth time. After 24 hours of incubation in a humidified incubator at 37° C. with 5% CO2 and 95% air, serially diluted test agents in growth medium were added to each well. After 96 total hours of culture in a CO2 incubator, the plates were processed with Cell Titer-Glo (Promega #G7571) according to manufacturer's instructions. Luminescence was detected using a Tecan GENios microplate reader. Percent inhibition of cell growth was calculated relative to untreated control wells. All tests were performed in duplicate at each concentration level. The IC50 value for the test agents was estimated using Prism 3.03 by curve-fitting the data using the following four parameter-logistic equation: […]
The same Promega Cell Titer-Glo® assay described above was used in the combination study. […] After 96 hours, the cell number was determined with the Cell Titer Glo® assay as described above. […]

[Ga+3].[O-]c1cccc2cccnc12.[O-]c1cccc2cccnc12.[O-]c1cccc2cccnc12 [tris(8-quinolinolato)gallium(III)]
IC50 (RPMI-8226, tris(8-quinolinolato)gallium(III) alone): ~900 nM | IC50 (RPMI-8226, with lenalidomide at a constant amount): 500 nM

Source: patent publication US20140296178A1, “Combination Therapy with a Gallium Complex” (priority 2010, published 2014)
